Source: PubChem BioAssay (NCI)
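Values below derive from 48-hour exposures of cells grown in 96-well plates, with endpoints linearly interpolated between the two concentrations bracketing the appropriate inhibition level. At the TGI there is no net growth.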

How the values were obtained:
Assay in all cases: NCI tumour cell line growth inhibition, 48 h
SNB-19 CNS = tested on: SNB-19 CNS
OVCAR-3 ovarian = tested on: OVCAR-3 ovarian
786-0 renal = tested on: 786-0 renal
SK-OV-3 ovarian = tested on: SK-OV-3 ovarian
MDA-MB-435 = tested on: MDA-MB-435
KM12 colon = tested on: KM12 colon
HCT-15 colon = tested on: HCT-15 colon
T-47D breast = tested on: T-47D breast
IGROV1 ovarian = tested on: IGROV1 ovarian
DU-145 prostate = tested on: DU-145 prostate
NCI/ADR-RES ovarian = tested on: NCI/ADR-RES ovarian
BT-549 breast = tested on: BT-549 breast
NCI-H522 lung = tested on: NCI-H522 lung
MDA-MB-231 breast = tested on: MDA-MB-231 breast
LOX IMVI melanoma = tested on: LOX IMVI melanoma
CCRF-CEM leukemia = tested on: CCRF-CEM leukemia
HT29 colon = tested on: HT29 colon
UACC-62 melanoma = tested on: UACC-62 melanoma
HCC-2998 colon = tested on: HCC-2998 colon
MDA-N = tested on: MDA-N
NCI-H23 lung = tested on: NCI-H23 lung
MALME-3M melanoma = tested on: MALME-3M melanoma
OVCAR-5 ovarian = tested on: OVCAR-5 ovarian
M14 melanoma = tested on: M14 melanoma
NCI-H226 lung = tested on: NCI-H226 lung
A549 NSCLC = tested on: A549 NSCLC
NCI-H460 lung = tested on: NCI-H460 lung
SF-268 CNS = tested on: SF-268 CNS
MOLT-4 leukemia = tested on: MOLT-4 leukemia
HOP-62 NSCLC = tested on: HOP-62 NSCLC
UO-31 renal = tested on: UO-31 renal
HCT-116 colon = tested on: HCT-116 colon
U251 CNS = tested on: U251 CNS
SW-620 colon = tested on: SW-620 colon
COLO 205 colon = tested on: COLO 205 colon
MCF7 breast = tested on: MCF7 breast
OVCAR-4 ovarian = tested on: OVCAR-4 ovarian
UACC-257 melanoma = tested on: UACC-257 melanoma
SK-MEL-28 melanoma = tested on: SK-MEL-28 melanoma
K-562 leukemia = tested on: K-562 leukemia
SF-295 CNS = tested on: SF-295 CNS
SN12C renal = tested on: SN12C renal
TK-10 renal = tested on: TK-10 renal
SF-539 CNS = tested on: SF-539 CNS
PC-3 prostate = tested on: PC-3 prostate
EKVX NSCLC = tested on: EKVX NSCLC
HOP-92 NSCLC = tested on: HOP-92 NSCLC
SNB-75 CNS = tested on: SNB-75 CNS
A498 renal = tested on: A498 renal
CAKI-1 renal = tested on: CAKI-1 renal
OVCAR-8 ovarian = tested on: OVCAR-8 ovarian
ACHN renal = tested on: ACHN renal
HL-60(TB) leukemia = tested on: HL-60(TB) leukemia
RXF 393 renal = tested on: RXF 393 renal
SK-MEL-5 melanoma = tested on: SK-MEL-5 melanoma
SK-MEL-2 melanoma = tested on: SK-MEL-2 melanoma
RPMI-8226 leukemia = tested on: RPMI-8226 leukemia

Measured: TGI

CC(=O)Oc1cc(C(F)(F)F)ccc1C(=O)OC1(C)OC(=O)c2ccc(C(F)(F)F)cc2O1 (stereo not drawn)
not listed: SK-MEL-5 melanoma | SK-MEL-2 melanoma | RPMI-8226 leukemia
> 100 µM: all other assays above

CC1=C2C(=C[C@H]3[C@]4(C)CCCC(C)(C)[C@H]4CC[C@]34O[C@H]24)OC1=O
not listed: OVCAR-3 ovarian | T-47D breast | LOX IMVI melanoma | CCRF-CEM leukemia | SF-539 CNS | CAKI-1 renal | OVCAR-8 ovarian | HL-60(TB) leukemia
> 100 µM: all other assays above
